Test results: patent US9617310B2 (priority 2013, dated 2017)

Columns and labels:
[1] = from C=CCCC[C@@H]1[C@H]2C[C@H]2C[C@H]1OC(=O)N[C@H](C(=O)N1C[C@H](Oc2nc3cc(Cl)ccc3nc2C=C)C[C@H]1C(=O)OC)C(C)(C)C; rcm bond; Zhan Catalyst-1B; DCE; 4.97 mM; 83.0 °C; 0.67 h
[2] = biological target: T1, NS3 genotype 1b protease (Hepatitis C virus genotype 1b, UniProt Q9WMX2, E1202G); assay: Ki determination, NS3 protease genotype 1b (fluorogenic depsipeptide substrate); type: biochemical; details: NS3 protease domain genotype 1b, NS4A peptide
T1 construct: Purified NS3 protease domain (amino acids 1-181) of the genotype 1b and 3a virus were generated as above; K3 hexahistidine tag (N); rTEV protease cleavage site (N); made in house; host or cells: E. coli BL21AI
T1 sequence (Q9WMX2 1027-1207 E1202G, other chains not shown): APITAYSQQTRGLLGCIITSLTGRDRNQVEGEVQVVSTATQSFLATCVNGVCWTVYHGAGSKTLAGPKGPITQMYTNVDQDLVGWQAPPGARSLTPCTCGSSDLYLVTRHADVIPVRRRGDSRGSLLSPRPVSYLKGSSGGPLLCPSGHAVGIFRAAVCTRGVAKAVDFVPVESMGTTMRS
Description: (§1) Ki Determination for Genotypes 1b and 3a NS3 Protease.
(§2) Purified NS3 protease domain (amino acids 1-181) of the genotype 1b and 3a virus were generated as above. The internally quenched fluorogenic depsipeptide substrate Ac-DED(Edans)-EEAbuψ[COO]ASK(Dabcyl)-NH2 and a synthetic peptide containing the hydrophobic core residues of the NS4A protein cofactor ([…]; NS4A peptide) were obtained from Anaspec, Inc. (San Jose, Calif.). Other chemicals and biochemicals were of reagent grade or better and were purchased from standard suppliers.
(§3) Reactions were run at room temperature in buffer consisting of 50 mM HEPES, 40% glycerol, 0.05% Triton X-100, 10 mM DTT, and 10% DMSO. The final assay solutions contained 50 pM NS3 genotype 1b protease or 200 pM genotype 3a protease, 20 μM NS4A peptide, and 4 μM substrate (genotype 1b) or 2 μM substrate (genotype 3a). Inhibitor concentrations varied from 100 nM to 5 pM in 3-fold dilutions, and no-inhibitor controls were included.
(§4) Compound dilutions were made in DMSO at 20× final concentration. Reaction mixtures were prepared in 96-well assay plates. A solution of enzyme and NS4A peptide in assay buffer (25 μL volume with both reagents at 4× final concentration) was mixed with 45 μL assay buffer and 5 μL of either inhibitor or DMSO, and pre-incubated at room temperature for 1 hour. The reaction was started by addition of 25 μL substrate solution at 4× final concentration. Plates were mixed vigorously for 5-10 seconds and reactions were allowed to proceed for 90 minutes. Fluorescence was measured every 30 s between 90 and 120 minutes reaction time using a Tecan InfiniTe M1000 or PerkinElmer Envision multimode plate reader with an excitation wavelength of 340 nm and an emission wavelength of 490 nm.
(§5) Rates were calculated from the progress curves at steady state, in the time frame of 90-120 minutes after addition of substrate. To determine the Ki, rates were plotted as a function of inhibitor concentration, and the data were fit with equation 1 (Morrison, J. F., Biochimica et Biophysica Acta 1969, 185, 269-286) to calculate Ki^app using GraphPad Prism 5. Active fraction of enzyme was determined by active site titration with known potent inhibitors. Ki was calculated from Ki^app/(1+[[S]/Km]).

[3] = biological target: T2, NS3 genotype 3a protease (UniProt Q81258); assay: Ki determination, NS3 protease genotype 3a (fluorogenic depsipeptide substrate); type: biochemical, hepatitis C virus; details: NS3 protease domain genotype 3a, NS4A peptide
T2 construct: Purified NS3 protease domain (amino acids 1-181) of the genotype 1b and 3a virus were generated as above; fused on or other part: N-terminal hexahistidine tag with an rTEV protease cleavage site (vector p28-N6H-Tev-NS3(181)3)
T2 sequence (Q81258 1033-1663): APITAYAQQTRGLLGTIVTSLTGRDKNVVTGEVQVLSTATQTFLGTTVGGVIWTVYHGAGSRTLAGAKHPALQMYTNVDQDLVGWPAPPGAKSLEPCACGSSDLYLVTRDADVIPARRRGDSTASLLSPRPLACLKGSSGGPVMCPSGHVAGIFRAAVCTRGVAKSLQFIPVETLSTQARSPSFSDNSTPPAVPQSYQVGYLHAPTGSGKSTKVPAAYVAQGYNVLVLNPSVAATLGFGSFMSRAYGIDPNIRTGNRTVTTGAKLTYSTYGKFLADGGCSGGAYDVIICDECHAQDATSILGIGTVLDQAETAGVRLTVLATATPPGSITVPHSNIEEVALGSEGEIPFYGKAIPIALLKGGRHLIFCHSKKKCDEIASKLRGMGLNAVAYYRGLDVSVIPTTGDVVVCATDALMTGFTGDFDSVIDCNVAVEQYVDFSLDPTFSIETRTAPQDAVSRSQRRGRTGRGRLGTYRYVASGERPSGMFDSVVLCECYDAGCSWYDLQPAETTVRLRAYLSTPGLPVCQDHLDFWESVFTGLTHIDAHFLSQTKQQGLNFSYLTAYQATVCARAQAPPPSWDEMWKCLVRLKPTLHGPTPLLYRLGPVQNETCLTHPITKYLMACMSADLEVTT
Description: as §1, §2, §3, §4, §5

[4] = tested on: genotype 1a stable HCV replicon (H77) in Huh-7-derived cells; assay: Stable subgenomic HCV replicon, genotype 1a, Renilla luciferase; type: cell-based; details: Hepatitis C virus, stable replicon genotype 1a, 72 h, read-out: EC50 1A RLUC
Method: (§6) Antiviral potency (EC50) was determined in both stable subgenomic HCV replicon cell lines and transient-transfected HCV replicon cells. The term half maximal effective concentration (EC50) refers to the concentration of a drug which induces a response halfway between the baseline and maximum after the exposure time specified below.
(§7) Stable subgenomic HCV replicons for genotype 1a, 1b, 2a, 3a, and 4a were established in Huh-7-derived cells as described by Lohmann et al (Lohmann V, Korner F, Koch J, et al Replication of subgenomic hepatitis C virus RNAs in a hepatoma cell line. Science 1999; 285:119-3). Each stable cell line contains a bicistronic HCV replicon that encodes a humanized Renilla luciferase (hRLuc) reporter gene fused to a selectable neomycin-resistance gene, followed by an EMCV IRES and the NS3-NS5B coding region of HCV. […] Luciferase activity was measured as a marker for intracellular HCV replication levels.
(§8) The genotype 1a stable replicon was derived from the H77 HCV strain and contained adaptive mutations P1496L and S2204I. The genotype 1b stable replicon was derived from the Con1 HCV strain and contained adaptive mutations E1202G, T1280I, and K1846T. […] The genotype 3a stable replicon was derived from the S52 HCV strain and contained adaptive mutations P1121 L, A1198T and S2210I (equivalent to S2204I in genotype 1). The genotype 4a stable replicon was derived from the ED43 HCV strain and contained adaptive mutations Q1691R and S2204I. All replicon cell lines were propagated in Huh-7-derived cells and maintained in Dulbecco's modified Eagle's Medium (DMEM) supplemented with 10% fetal bovine serum (FBS) and 0.5 mg/ml G418.
(§9) To perform EC50 assays, cells from each HCV replicon were dispensed into 384-well plates. Compounds were dissolved in DMSO at a concentration of 10 mM and diluted in DMSO using an automated pipetting instrument. Three-fold serially diluted compounds were directly added to the cells using an automated instrument. DMSO was used as a negative (solvent; no inhibition) control, and a combination of three HCV inhibitors including a protease inhibitor; an NS5A inhibitor and a nucleoside inhibitor was used at concentrations >100×EC50 as a positive control (100% inhibition). Seventy-two hours later, cells were lysed and Renilla luciferase activity were quantified as recommended by the manufacturer (Promega-Madison, Wis.). Non-linear regression was performed to calculate […], values.

[5] = tested on: genotype 1b stable HCV replicon (Con1) in Huh-7-derived cells; assay: Stable subgenomic HCV replicon, genotype 1b, Renilla luciferase; type: cell-based; details: Hepatitis C virus, stable replicon genotype 1b, 72 h, read-out: EC50 1B RLUC
Method: as §6, §7, §8, §9

[6] = tested on: genotype 2a stable HCV replicon (JFH-1) in Huh-7-derived cells; assay: Stable subgenomic HCV replicon, genotype 2a, Renilla luciferase; type: cell-based; details: Hepatitis C virus, stable replicon genotype 2a, 72 h, read-out: EC50 2A RLUC
Method: as §6, §7, §8, §9

[7] = tested on: genotype 3a stable HCV replicon (S52) in Huh-7-derived cells; assay: Stable subgenomic HCV replicon, genotype 3a, Renilla luciferase; type: cell-based; details: Hepatitis C virus, 72 h, read-out: EC50 3A RLUC
Method: as §6, §7, §8, §9

[8] = tested on: genotype 4a stable HCV replicon (ED43) in Huh-7-derived cells; assay: Stable subgenomic HCV replicon, genotype 4a, Renilla luciferase; type: cell-based; details: Hepatitis C virus, 72 h, read-out: EC50 4A RLUC
Method: as §6, §7, §8, §9

Row | SMILES | ring closure, yield of all isomers [1] [%] | Ki [2] [nM] | Ki [3] [nM] | EC50 [4] [nM] | EC50 [5] [nM] | EC50 [6] [nM] | EC50 [7] [nM] | EC50 [8] [nM]
1 | COC(=O)[C@@H]1C[C@@H]2CN1C(=O)[C@H](C(C)(C)C)NC(=O)O[C@@H]1C[C@@H]3C[C@@H]3[C@H]1CCCC=Cc1nc3ccc(Cl)cc3nc1O2 | 56.6 | – | – | – | – | – | – | –
2 | COc1ccc2nc3c(nc2c1)O[C@@H]1C[C@@H](C(=O)N[C@]2(C(=O)NS(=O)(=O)C4CC4)C[C@H]2C(F)F)N(C1)C(=O)[C@H](C(C)(C)C)NC(=O)O[C@H]1[C@@H]2CC[C@@H](C2)[C@@H]1CCCCC3 [Example 6, (1S,4R,4aS,8S,11S,13R,25aS)-8-tert-butyl-N-[(1R,2R)-1-[(cyclopropylsulfonyl)carbamoyl]-2-(difluoromethyl)cyclopropyl]-17-methoxy-6,9-dioxo-2,3,4,4a,6,7,8,9,12,13,21,22,23,24,25,25a-hexadecahydro-1H,11H-1, 4:10,13-dimethanoquinoxalino[2,3-k][1,10,3,6]benzodioxadiazacyclononadecine-11-carboxamide] | – | 0.01 | 1.2 | 723 | 581 | 294 | 3840 | 433
